# Source: publication PMC6499206, “Quantification of Volatile Metabolites Derived From Garlic (Allium sativum) in Human Urine” (Frontiers in Nutrition, 2019)
# Assay: Quantification of garlic-derived metabolites in human urine after ingestion of 3 g raw garlic (SIDA, SAFE, HRGC-MS / HRGC-GC-MS)
# Assay type: in vivo
# Conditions: 3 g raw garlic
# Summary of the method: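 Quantification used stable isotope dilution (²H3-AMS, -AMSO, -AMSO2 standards), SAFE distillation at 50°C of DCM-treated urine, and GC-MS on a DB-FFAP column, with creatinine from the Jaffé reaction at 492 nm. Urine came from 18 volunteers avoiding sulfur-rich foods, sampled before and up to 24 h after eating 3 g raw garlic.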
smiles,measurement,setting,value
"C=CC[S+](C)[O-] (stereo not drawn) [AMSO, allyl methyl sulfoxide]",metabolite concentration in urine,"U VII, 1 h post (1.08 h)",239.4 µg/kg
same,"metabolite concentration in urine, creatinine-normalized","U VII, 1 h post (1.08 h)",148.3 µg/mmol creatinine
same,metabolite concentration in urine,"U VII, 2 h post (2.00 h)",158.6 µg/kg
same,"metabolite concentration in urine, creatinine-normalized","U VII, 2 h post (2.00 h)",162.5 µg/mmol creatinine
same,metabolite concentration in urine,"U VII, 4 h post (4.00 h)",145.1 µg/kg
same,"metabolite concentration in urine, creatinine-normalized","U VII, 4 h post (4.00 h)",90.0 µg/mmol creatinine
same,metabolite concentration in urine,"U VII, 6 h post (6.00 h)",123.7 µg/kg
same,"metabolite concentration in urine, creatinine-normalized","U VII, 6 h post (6.00 h)",40.0 µg/mmol creatinine
same,metabolite concentration in urine,"U VII, 8 h post (8.00 h)",58.6 µg/kg
same,"metabolite concentration in urine, creatinine-normalized","U VII, 8 h post (8.00 h)",30.1 µg/mmol creatinine
same,metabolite concentration in urine,"U VII, 24 h post (24.00 h)",5.9 µg/kg
same,"metabolite concentration in urine, creatinine-normalized","U VII, 24 h post (24.00 h)",1.6 µg/mmol creatinine
same,metabolite concentration in urine,"U VII, pre (-0.25 h)",3.4 µg/kg
same,"metabolite concentration in urine, creatinine-normalized","U VII, pre (-0.25 h)",1.0 µg/mmol creatinine
same,metabolite concentration in urine,"U VIII, 0.5 h post (0.52 h)",184.6 µg/kg
same,"metabolite concentration in urine, creatinine-normalized","U VIII, 0.5 h post (0.52 h)",234.8 µg/mmol creatinine
same,metabolite concentration in urine,"U VIII, 1 h post (1.08 h)",423.9 µg/kg
same,"metabolite concentration in urine, creatinine-normalized","U VIII, 1 h post (1.08 h)",255.5 µg/mmol creatinine
same,metabolite concentration in urine,"U VIII, 2 h post (2.08 h)",293.8 µg/kg
same,"metabolite concentration in urine, creatinine-normalized","U VIII, 2 h post (2.08 h)",277.9 µg/mmol creatinine
same,metabolite concentration in urine,"U VIII, 4 h post (4.07 h)",239.2 µg/kg
same,"metabolite concentration in urine, creatinine-normalized","U VIII, 4 h post (4.07 h)",113.3 µg/mmol creatinine
same,metabolite concentration in urine,"U VIII, 6 h post (6.08 h)",197.8 µg/kg
same,"metabolite concentration in urine, creatinine-normalized","U VIII, 6 h post (6.08 h)",52.6 µg/mmol creatinine
same,metabolite concentration in urine,"U VIII, 8 h post (7.90 h)",109.7 µg/kg
same,"metabolite concentration in urine, creatinine-normalized","U VIII, 8 h post (7.90 h)",40.0 µg/mmol creatinine
same,metabolite concentration in urine,"U VIII, 24 h post (23.83 h)",26.2 µg/kg
same,"metabolite concentration in urine, creatinine-normalized","U VIII, 24 h post (23.83 h)",9.9 µg/mmol creatinine
same,metabolite concentration in urine,"U VIII, pre (-0.33 h)",61.4 µg/kg
same,"metabolite concentration in urine, creatinine-normalized","U VIII, pre (-0.33 h)",13.8 µg/mmol creatinine
same,metabolite concentration in urine,"U X, 0.5 h post (0.53 h)",73.7 µg/kg
same,"metabolite concentration in urine, creatinine-normalized","U X, 0.5 h post (0.53 h)",38.2 µg/mmol creatinine
same,metabolite concentration in urine,"U X, 1 h post (1.03 h)",77.0 µg/kg
same,"metabolite concentration in urine, creatinine-normalized","U X, 1 h post (1.03 h)",97.5 µg/mmol creatinine
same,metabolite concentration in urine,"U X, 2 h post (2.03 h)",68.8 µg/kg
same,"metabolite concentration in urine, creatinine-normalized","U X, 2 h post (2.03 h)",102.4 µg/mmol creatinine
same,metabolite concentration in urine,"U X, 4 h post (3.85 h)",68.2 µg/kg
same,"metabolite concentration in urine, creatinine-normalized","U X, 4 h post (3.85 h)",51.9 µg/mmol creatinine
same,metabolite concentration in urine,"U X, 6 h post (5.80 h)",68.6 µg/kg
same,"metabolite concentration in urine, creatinine-normalized","U X, 6 h post (5.80 h)",29.1 µg/mmol creatinine
same,metabolite concentration in urine,"U X, 8 h post (7.75 h)",37.9 µg/kg
same,"metabolite concentration in urine, creatinine-normalized","U X, 8 h post (7.75 h)",16.3 µg/mmol creatinine
same,metabolite concentration in urine,"U X, 24 h post (23.97 h)",23.9 µg/kg
same,"metabolite concentration in urine, creatinine-normalized","U X, 24 h post (23.97 h)",2.2 µg/mmol creatinine
same,metabolite concentration in urine,"U X, pre (-0.07 h)",< LOD^2
same,"metabolite concentration in urine, creatinine-normalized","U X, pre (-0.07 h)",< LOD^2
same,metabolite concentration in urine,"U XI, 0.5 h post (0.50 h)",64.0 µg/kg
same,"metabolite concentration in urine, creatinine-normalized","U XI, 0.5 h post (0.50 h)",77.5 µg/mmol creatinine
same,metabolite concentration in urine,"U XI, 1 h post (1.02 h)",106.2 µg/kg
same,"metabolite concentration in urine, creatinine-normalized","U XI, 1 h post (1.02 h)",133.3 µg/mmol creatinine
same,metabolite concentration in urine,"U XI, 2 h post (2.00 h)",102.2 µg/kg
same,"metabolite concentration in urine, creatinine-normalized","U XI, 2 h post (2.00 h)",133.3 µg/mmol creatinine
same,metabolite concentration in urine,"U XI, pre (-0.08 h)",3.8 µg/kg
same,"metabolite concentration in urine, creatinine-normalized","U XI, pre (-0.08 h)",1.1 µg/mmol creatinine
same,metabolite concentration in urine,"U XII, 0.5 h post (0.48 h)",83.8 µg/kg
same,"metabolite concentration in urine, creatinine-normalized","U XII, 0.5 h post (0.48 h)",11.2 µg/mmol creatinine
same,metabolite concentration in urine,"U XII, 1 h post (1.03 h)",82.1 µg/kg
